This is an account of results in patent US20100234469A1, “New Crystals Of A Benzoylbenzeneacetamide Derivative” (Medichem, S.A., priority 2009, published 2010).

Assay type in all cases: physicochemical
Series [1] is described as follows: Particle size distribution (Malvern Mastersizer S). The conditions noted are these: for D[4,3]: mean diameter by volume; for DMVS (μm): Table 4, surface area mean diameter (D[3,2]). The method, then: The particle size for nepafenac was measured using a Malvern Mastersizer S particle size analyzer with an MS1-Small Volume Sample Dispersion Unit stirred cell. A 300RF mm lens and a beam length of 2.4 mm were used. Samples for analysis were prepared by wetting a weighed amount of nepafenac (approximately 50 mg) with 0.5 mL of a 1% solution of Igepal CA-630 in deionized water, and dispersing in 20 mL of deionized water. After sonication for 1 minute, the suspension was delivered drop-wise to the previously background and corrected measuring cell filled with dispersant (deionized water) until the obscuration reached the desired level. Volume distributions were obtained for three times. After completing the measurements, the sample cell was emptied and cleaned, refilled with suspending medium, and the sampling procedure repeated again. For characterization, the values of D10, D50 and D90 (by volume), D[4,3] (mean diameter by volume) and D[3,2] (mean diameter by surface area to volume, or Sauter diameter) were specifically listed, each one being the mean of the six values available for each characterization parameter.
The notation Dx means that X % of the particles have a diameter less than a specified diameter D. Thus a D90 [or D(v, 0.9)] of 100 μm means that 90% of the particles have a diameter less than 100 μm.

Series [2] is described as follows: BET specific surface area. The conditions noted are these: for Specific Surface Area (BET): N2 adsorption at 77 K; for Sw (m^2/g): Table 4, powder specific surface area. The method, then:
The BET (Brunauer, Emmett and Teller) specific surface area for nepafenac was measured using a Micromeritics™ GEMINI V equipment (GEMINI CONFIRM V2.00 Software™). The sample for analysis was degassed at 30° C. for 10 minutes and at 140° C. for one hour. The determination of the adsorption of N2 at 77 K was measured for relative pressures in the range of 0.02 to 0.2 for a weighed amount of nepafenac (i.e., approximately 0.5 g).

The nature of series [3]: Optical microscopy: crystal shape and aspect ratio. The note with it: for Crystal shape: optical microscopy, 40× magnification; for Aspect ratio: crystal length / width, average of at least 100 crystals. The source says: The “aspect ratio” of a crystal is defined as the ratio of its longest dimension to its shortest dimension. As used herein, “aspect ratio” is the quotient of the division of a crystal's length by its width. The aspect ratio of crystals can be obtained by taking micrographs of a batch of crystal (See General Experimental Conditions. Optical Microscopy).
The micrographs were taken at 40× magnification.
The aspect ratio of crystals was obtained from micrographs of a batch of crystal. Micrographs were processed with ImageJ 1.42q software. Length and width of at least 100 representative crystals (i.e., having an area greater than 500 μm^2 for a 40× magnification image) was measured, and the aspect ratio of each crystal was calculated by dividing the crystal length by the crystal width. The average aspect ratio for each batch was determined by dividing the sum of crystal aspect ratios by the number of crystals measured.

The nature of series [4]: Solubility of nepafenac at reflux temperature in crystallization solvent. Here is the method:
General procedure: Nepafenac was dissolved under magnetical stirring and at reflux in a solvent (See Table 1). The solution was cooled to room temperature under stirring. The solid was filtered and dried. The different conditions and the obtained results are described in Table 1 below.

The nature of series [5]: Density by glass pycnometer in n-heptane. The note with it: Table 4, particle density. Here is the method: Density of nepafenac samples was determined at 25° C. using a 50 mL glass pycnometer. […] The density of the nepafenac sample (ρs) can be determined from the known density of n-heptane (ρH: 0.685 g/cm^3), the weight of the pycnometer filled only with n-heptane (WH^0, the weight of the filled pycnometer containing both nepafenac and n-heptane (WS+H), and the weight of nepafenac (WS):
Density of nepafenac samples was determined for three times, being the listed result the mean of the three values available for each sample.

Series [6] is described as follows: Sphericity factor calculation. The conditions noted are these: calculated from Sw, ρ and DMVS. The source says:
One of the most common ways of expressing the degree of irregularity of the particles is by means of the sphericity factor (ψw), which is generally defined as the ratio between the surface area of a sphere having the same volume as the particle and the surface area of the particle:
Because sphericity factors are not calculated for each particle but for an assembly of particles, they have to be based on an average size. Thus, the sphericity factor will then be given by the following equation: […]
where Sw is the powder specific surface area, ρ is the particle density and DMVS is the surface area mean diameter, also referred to as the mean volume-surface, the Sauter diameter or D[3,2]. The Sauter diameter is defined as the diameter of a sphere that has the same volume/surface area ratio as the particle of interest.
A sphericity factor of 1.0 describes a perfect sphere with the greatest ease of flow (Encapsulated and powdered foods, CRC Press 2005).

The nature of series [7]: Chargeability observed when handling crystals with a metallic material. The source says: Drug substances in solid form can suffer electrostatic charging by contact or friction electrification (tribocharging) caused by interactions among particles or between particles and the surfaces that contain them. These interactions can affect formulation, manufacture, powder flow, and packing behaviour. In addition, it has been reported that electrostatic charges are also responsible for problems in blend uniformity. The net positive or negative tendency of dry powders to become charged electrostatically is called chargeability.
There is no standard instrument for the measurement of the chargeability of dry powders (see AAPS PharmSciTech 2006, 7, Article 103). Triboelectric charge is commonly reported on a charge-to-mass basis since net charge and mass can be easily measured. However, triboelectric and induction charging are more closely related to the surface area of a particle rather to volume or mass. Then, it is well known that the surface area of the particles plays a key role in dry powder chargeability, and that therefore the particles having a higher specific surface area can hold a greater charge.

The nature of series [8]: Flowability by Hausner ratio (tapped / bulk density). The note with it: micronized crystals. Here is the method:
Flowability affects the ease with which the material is handled during processing into a pharmaceutical product. Namely, when flowability is very poor, problems occur with handling and processing during formulating. The flowability of nepafenac can be measured using the Hausner ratio, which is a value calculated by dividing the tapped bulk density of nepafenac by the freely settled bulk density of nepafenac. The freely settled bulk density is calculated by pouring a known weight of material into a measuring cylinder and recording the volume. The tapped density is calculated by tapping the cylinder against a surface for a specified number of times and recording again the new volume. See Henry H. Hausner, “Friction Conditions in a Mass of Metal Powders”, Int. J. Powder Metall. Vol. 3, 1967, pp 7-13.
A low Hausner ratio indicates a high flowability. […]
Measurement of Hausner ratio is well-known in the art and is described, for example, by Mersmann; Crystallization Technology Handbook (A. Mersmann, ed., 2nd Ed., Marcel Dekker). In the present invention, the bulk and tapped densities for each sample of nepafenac were determined using a TP-TD1 tapped densitometer from Pharma Test. The Hausner ratio of the nepafenac sample was calculated by dividing the tapped bulk density by the bulk density.

Where [9] appears, read: Table 3, micronized samples, unit inferred.

In brackets after ≈: the same amount, converted by molar mass. Like-named read-outs stand apart in the source and are kept apart here.

With `NC(=O)Cc1cccc(C(=O)c2ccccc2)c1N` [Batch 2, 2-amino-3-benzoylbenzeneacetamide], in series [1] (setting [9]), the D10 turned out to be 4.8 µm, the D50 came to 19.8 µm and the D90 was determined as 66.5 µm.

For the molecule `NC(=O)Cc1cccc(C(=O)c2ccccc2)c1N` [Batch 3, 2-amino-3-benzoylbenzeneacetamide], in series [1] (setting [9]), the D10 was 4.4 µm, the D50 was 14.9 µm and the D90 is 45.3 µm.

Take `NC(=O)Cc1cccc(C(=O)c2ccccc2)c1N` [Example 6, 2-amino-3-benzoylbenzeneacetamide]: the “Specific Surface Area (BET)” value in series [2] came out at 0.7046±0.0272 m^2/g. Further, the Crystal shape result in series [3] was “plate-like crystals”. In series [1] (by volume), the D10 came out at 30.5 μm, the D50 is 144.9 μm and the D90 amounted to 401.8 μm. Further, in series [1], the “D[4,3]” value amounted to 185.0 μm.

As for `NC(=O)Cc1cccc(C(=O)c2ccccc2)c1N` [Example 4, 2-amino-3-benzoylbenzeneacetamide], in series [3], the Crystal shape result is recorded as “Plate”. For the same molecule, in series [4] (2-propanol:water 60:40, organic solvent or mixture, thermodynamic from solid, in 2-propanol:water 60:40 at reflux, read-out: Solubility), the solubility amounted to 32.6 mg/mL (≈ 128 mM).

Take `NC(=O)Cc1cccc(C(=O)c2ccccc2)c1N` [Example 10, 2-amino-3-benzoylbenzeneacetamide]: the “ρ” value in series [5] was found to be 1.33 g/mL. In addition, the “Ψw (sphericity factor)” value in series [6] was 0.82. The “Sw (m^2/g)” value in series [2] is 2.0341 ± 0.0074 m^2/g. In addition, in series [1], the “DMVS (μm)” value was determined as 2.7 μm. In addition, in series [1] (by volume), the D10 is reported as 2.2 μm, the D50 is 12.1 μm and the D90 is given as 27.5 μm. Further, in series [1] (mean diameter by surface area to volume (Sauter diameter)), the “D[3,2]” value turned out to be 2.7 μm.

With `NC(=O)Cc1cccc(C(=O)c2ccccc2)c1N` [Example 7, 2-amino-3-benzoylbenzeneacetamide, reference compound], in series [1] (by volume), the D10 is 1.3 μm, the D50 turned out to be 6.1 μm and the D90 was determined as 17.1 μm.

As to `NC(=O)Cc1cccc(C(=O)c2ccccc2)c1N` [Example 5, 2-amino-3-benzoylbenzeneacetamide], in series [7], the Chargeability entry is recorded as “Reduced chargeability”. For the same molecule, in series [3], the Crystal shape entry is reported as “plate-like shape”.

Take `NC(=O)Cc1cccc(C(=O)c2ccccc2)c1N` [Example 2, 2-amino-3-benzoylbenzeneacetamide]: the Crystal shape entry in series [3] is given as “Plate”. Further, the solubility in series [4] (2-propanol:water 80:20, organic solvent or mixture, thermodynamic from solid, in 2-propanol:water 80:20 at reflux, read-out: Solubility) came to 78.6 mg/mL (≈ 309 mM).

In series [1] (setting [9]), `NC(=O)Cc1cccc(C(=O)c2ccccc2)c1N` [Batch 1, 2-amino-3-benzoylbenzeneacetamide] yielded a D10 of 6.1 µm, a D50 of 21.4 µm and a D90 of 64.3 µm.

As to `NC(=O)Cc1cccc(C(=O)c2ccccc2)c1N` [Comparative Example 2, 2-amino-3-benzoylbenzeneacetamide, reference compound], in series [3], the Aspect ratio stood at 5.67 and the Crystal shape result is “Needle-like crystals”.

For the molecule `NC(=O)Cc1cccc(C(=O)c2ccccc2)c1N` [Example 1, 2-amino-3-benzoylbenzeneacetamide], in series [3], the Aspect ratio was determined as 3.04 and the Crystal shape entry is “Plate”. Moreover, the solubility in series [4] (2-propanol:water 90:10, organic solvent or mixture, thermodynamic from solid, in 2-propanol:water 90:10 at reflux, read-out: Solubility) stood at 55.2 mg/mL (≈ 217 mM).

On to `NC(=O)Cc1cccc(C(=O)c2ccccc2)c1N` [Comparative Example 3, 2-amino-3-benzoylbenzeneacetamide, reference compound], for which, in series [2], the “Specific Surface Area (BET)” value turned out to be 0.8256±0.0270 m^2/g. In addition, in series [3], the Crystal shape result is recorded as “Needle-like crystals”. In addition, in series [1] (by volume), the D10 was found to be 23.6 μm, the D50 worked out at 85.8 μm and the D90 stood at 491.1 μm. The “D[4,3]” value in series [1] (unit not given, in µm (unit assumed)) worked out at 178.4.

For the molecule `NC(=O)Cc1cccc(C(=O)c2ccccc2)c1N` [Example 8, 2-amino-3-benzoylbenzeneacetamide], the “ρ” value in series [5] is 1.33 g/mL. Moreover, the “Ψw (sphericity factor)” value in series [6] is reported as 1.0. Also, the “Sw (m^2/g)” value in series [2] came out at 1.7686 ± 0.0242 m^2/g. In series [8], the Hausner ratio came out at 1.43. Besides, the “DMVS (μm)” value in series [1] amounted to 2.5 μm. Moreover, in series [1] (by volume), the D10 stood at 1.2 μm, the D50 came to 5.8 μm and the D90 is on record as 18.9 μm.

For `NC(=O)Cc1cccc(C(=O)c2ccccc2)c1N` [Comparative Example 1, 2-amino-3-benzoylbenzeneacetamide, reference compound], the Chargeability result in series [7] is on record as “high chargeability”. In addition, the Crystal shape result in series [3] is “needle-like shape”. Also, the “solubility” value in series [4] (in 2-propanol at reflux temperature) is recorded as 21.2 mg/mL (≈ 83.4 mM).

In the case of `NC(=O)Cc1cccc(C(=O)c2ccccc2)c1N` [Example 3, 2-amino-3-benzoylbenzeneacetamide], the Crystal shape result in series [3] is listed as “Plate”. The solubility in series [4] (2-propanol:water 70:30, organic solvent or mixture, thermodynamic from solid, in 2-propanol:water 70:30 at reflux, read-out: Solubility) is 79.6 mg/mL (≈ 313 mM).
